In patent publication US4411832A, “Polysaccharide matrices comprising macromolecular spacer arms for use as adsorbents in affinity chromatography techniques” (priority 1981, dated 1983):

Molecular target: T1, estradiol receptor (Bos taurus, UniProt P49884)
T1 construct: incubated in suspension with varying concentrations of [^3 H]estradiol and with the uterine supernatant; from tissue; host or cells: uterus (uterine supernatant)
T1 sequence (P49884 1-596): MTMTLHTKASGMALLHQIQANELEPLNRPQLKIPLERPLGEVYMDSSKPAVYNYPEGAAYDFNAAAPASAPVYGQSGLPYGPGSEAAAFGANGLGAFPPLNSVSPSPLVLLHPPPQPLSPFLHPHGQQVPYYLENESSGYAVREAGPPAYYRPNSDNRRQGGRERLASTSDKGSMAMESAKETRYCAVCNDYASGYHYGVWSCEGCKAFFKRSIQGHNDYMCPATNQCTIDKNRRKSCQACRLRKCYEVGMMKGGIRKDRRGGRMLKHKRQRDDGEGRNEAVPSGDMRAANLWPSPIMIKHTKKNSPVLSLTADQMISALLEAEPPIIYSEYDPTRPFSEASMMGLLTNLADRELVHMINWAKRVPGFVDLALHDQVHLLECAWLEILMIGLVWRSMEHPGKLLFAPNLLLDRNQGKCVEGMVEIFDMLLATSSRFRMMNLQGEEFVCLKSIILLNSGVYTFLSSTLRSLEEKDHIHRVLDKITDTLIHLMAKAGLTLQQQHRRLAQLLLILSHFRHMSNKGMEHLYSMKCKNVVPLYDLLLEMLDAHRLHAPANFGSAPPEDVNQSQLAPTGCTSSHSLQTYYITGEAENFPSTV
Assay: Affinity of the estradiol receptor for agarose-estradiol derivatives (incubation with [3H]estradiol and uterine supernatant, reciprocal plots)
Type: binding
Conditions: free ligand, uterine supernatant, estimated, read-out: dissociation constant
Description: Experiments were performed to estimate the affinity of the estradiol receptor for the macromolecular agarose-estradiol derivatives to compare the relative affinities of the various derivatives. The adsorbents are incubated in suspension with varying concentrations of [^3 H]estradiol and with the uterine supernatant, and the data were plotted in reciprocal plots to estimate the comparative affinities toward the estradiol receptor.

In the case of `C[C@]12CC[C@@H]3c4ccc(O)cc4CC[C@H]3[C@@H]1CC[C@@H]2OC(=O)CCC(=O)O` [17β-estradiol 17-hemisuccinate], the Kd is reported as ~700 nM.
